Test results taken from patent US11014911B2, “CDK2 inhibitors” (Pfizer Inc., priority 2019, dated 2021).
pKi: −log10 of the molar value.

Target: CDK2/Cyclin E1 full length (Homo sapiens (Human), UniProt P24941)
Test: CDK2/Cyclin E1 full length mobility shift assay
Assay type: biochemical

For CC[C@H](C)NC(=O)O[C@@H]1CC[C@H](c2cc(NC(=O)Cc3ncc(C)s3)n[nH]2)C1 [Example 341, (1R,3S)-3-(3-{[(5-methyl-1,3-thiazol-2-yl)acetyl]amino}-1H-pyrazol-5-yl)cyclopentyl (2S)-butan-2-ylcarbamate], the pKi was 9.19.
O=C(Cc1ccc(C(F)(F)F)nc1)Nc1cc([C@@H]2CC[C@H](OC(=O)NC[C@H]3C[C@H](O)C3)C2)[nH]n1 [Example 577, (1S,3R)-3-[3-({[6-(trifluoromethyl)pyridin-3-yl]acetyl}amino)-1H-pyrazol-5-yl]cyclopentyl[(trans-3-hydroxycyclobutyl)methyl]-carbamate] was tested, and the pKi was 8.47.
Cc1cnc(CC(=O)Nc2cc([C@H]3CC[C@@H](OC(=O)NC(C)C)C3)[nH]n2)s1 [Example 273, (1R,3S)-3-(3-{[(5-methyl-1,3-thiazol-2-yl)acetyl]amino}-1H-pyrazol-5-yl)cyclopentyl propan-2-ylcarbamate] showed a pKi of 8.51.
Molecule CC(CC(F)(F)F)NC(=O)O[C@@H]1CC[C@H](c2cc(NC(=O)Cc3ccno3)n[nH]2)C1 (single isomer, unassigned) [Example 85] has a pKi of 8.97.
C[C@H]1CCC[C@H]1NC(=O)O[C@@H]1CC[C@H](c2cc(NC(=O)Cc3ccno3)n[nH]2)C1 [Example 461, (1R,3S)-3-{3-[(1,2-oxazol-5-ylacetyl)amino]-1H-pyrazol-5-yl}cyclopentyl [(1R,2S)-2-methylcyclopentyl]carbamate] gave a pKi of 8.76.
C[C@]1(O)CC[C@H](NC(=O)O[C@H]2CC[C@@H](c3cc(NC(=O)Cc4ccc(F)cc4)n[nH]3)C2)CC1 [Example 561, (1S,3R)-3-(3-{[(4-fluorophenyl)acetyl]amino}-1H-pyrazol-5-yl)cyclopentyl (trans-4-hydroxy-4-methylcyclohexyl)carbamate] gave a pKi of 8.74.
Molecule Cc1csc(CC(=O)Nc2cc([C@H]3CC[C@@H](OC(=O)NC(C)C)C3)[nH]n2)n1 [Example 274, (1R,3S)-3-(3-{[(4-methyl-1,3-thiazol-2-yl)acetyl]amino}-1H-pyrazol-5-yl)cyclopentyl propan-2-ylcarbamate] has a pKi of 8.58.
For COc1cc(CC(=O)Nc2cc([C@@H]3CC[C@H](OC(=O)NC4CCOCC4)C3)[nH]n2)ccn1 [Example 503, (1S,3R)-3-(3-{[(2-methoxypyridin-4-yl)acetyl]amino}-1H-pyrazol-5-yl)cyclopentyl tetrahydro-2H-pyran-4-ylcarbamate], the pKi was 8.67.
For Cc1ncc(CC(=O)Nc2cc([C@H]3CC[C@@H](OC(=O)N[C@H]4CCC[C@H]4C)C3)[nH]n2)s1 [Example 464, (1R,3S)-3-(3-{[(2-methyl-1,3-thiazol-5-yl)acetyl]amino}-1H-pyrazol-5-yl)cyclopentyl [(1S,2R)-2-methylcyclopentyl]carbamate], the pKi was 8.58.
CC1(NC(=O)O[C@@H]2CC[C@H](c3cc(NC(=O)Cc4ccc5ncccc5n4)n[nH]3)C2)CC1 [Example 132] was tested, and the pKi was 9.72.
With CC1(NC(=O)O[C@@H]2CC[C@H](c3cc(NC(=O)CC4COc5ccccc54)n[nH]3)C2)CCOC1 (single isomer, unassigned) [Example 489] the pKi was 8.43.
With Cc1ccc(C(=O)Nc2cc([C@H]3CC[C@@H](OC(=O)NC4(CC(F)(F)F)CC4)C3)[nH]n2)cn1 [Example 452, (1R,3S)-3-(3-{[(6-methylpyridin-3-yl)carbonyl]amino}-1H-pyrazol-5-yl)cyclopentyl [1-2,2,2-trifluoroethyl)cyclopropyl] carbamate] the pKi was 9.29.
CCC(CO)CNC(=O)O[C@@H]1CC[C@H](c2cc(NC(=O)Cc3cc(F)cc(F)c3)n[nH]2)C1 (single isomer, unassigned) [Example 536] showed a pKi of 8.68.
COC[C@H](C)NC(=O)O[C@@H]1CC[C@H](c2cc(NC(=O)Cc3ccc(OC)nc3)n[nH]2)C1 [Example 519, (1R,3S)-3-(3-{[(6-methoxypyridin-3-yl)acetyl]amino}-1H-pyrazol-5-yl)cyclopentyl [(2S)-1-methoxypropan-2-yl]carbamate] was tested, and the pKi was 9.25.
CCCNC(=O)O[C@H]1CC[C@@H](c2cc(NC(=O)Cc3ccnc(OC)c3O)n[nH]2)C1 [Example 194, (1S,3R)-3-(3-{[(3-hydroxy-2-methoxypyridin-4-yl)acetyl]amino}-1H-pyrazol-5-yl)cyclopentyl propylcarbamate] was tested, and the pKi was 9.10.
CCCNC(=O)O[C@@H]1CC[C@H](c2cc(NC(=O)Cc3cccc4ncsc34)n[nH]2)C1 [Example 196, (1R,3S)-3-{3-[(1,3-benzothiazol-7-ylacetyl)amino]-1H-pyrazol-5-yl}cyclopentyl propylcarbamate] showed a pKi of 8.84.
In the case of CCC(O)CNC(=O)O[C@@H]1CC[C@H](c2cc(NC(=O)Cc3ccc(OC)cc3)n[nH]2)C1 (single isomer, unassigned) [Example 540], the pKi was 8.58.
CCC1CCN1C(=O)O[C@@H]1CC[C@H](c2cc(NC(=O)Cc3ncc(C)o3)n[nH]2)C1 (single isomer, unassigned) [Example 599] gave a pKi of 8.86.
Molecule CC1(NC(=O)O[C@@H]2CC[C@H](c3cc(NC(=O)Cc4cnc(C(F)(F)F)cn4)n[nH]3)C2)CC1 [Example 130] has a pKi of 9.60.
For COc1ccc(CC(=O)Nc2cc([C@H]3CC[C@@H](OC(=O)NC4(C)CCOC4)C3)[nH]n2)cc1 (single isomer, unassigned) [Example 483], the pKi was 9.49.
With CC(C)n1cc(CC(=O)Nc2cc([C@H]3CC[C@@H](OC(=O)NC4(C)CC4)C3)[nH]n2)nn1 [Example 436, (1R,3S)-3-[3-({[1-(propan-2-yl)-1H-1,2,3-triazol-4-yl]acetyl}amino)-1H-pyrazol-5-yl]cyclopentyl (1-methylcyclopropyl)carbamate] the pKi was 8.48.
COc1ccc(CC(=O)Nc2cc([C@H]3CC[C@@H](OC(=O)N4C[C@@H](O)[C@@H]4C)C3)[nH]n2)cn1 [Example 615, (1R,3S)-3-(3-{[(6-methoxypyridin-3-yl)acetyl]amino}-1H-pyrazol-5-yl)cyclopentyl (2S,3R)-3-hydroxy-2-methylazetidine-1-carboxylate] showed a pKi of 8.70.
For CC(C)(C)NC(=O)O[C@@H]1CC[C@H](c2cc(NC(=O)Cc3cc(C(F)(F)F)ccn3)n[nH]2)C1 [Example 316, (1R,3S)-3-[3-({[4-(trifluoromethyl)pyridin-2-yl]acetyl}amino)-1H-pyrazol-5-yl]cyclopentyl tert-butylcarbamate], the pKi was 8.89.
Cc1nc(CC(=O)Nc2cc([C@H]3CC[C@@H](OC(=O)NC(C)(C)C)C3)[nH]n2)ccc1Cl [Example 312, (1R,3S)-3-(3-{[(5-chloro-6-methylpyridin-2-yl)acetyl]amino}-1H-pyrazol-5-yl)cyclopentyl tert-butylcarbamate] was tested, and the pKi was 9.37.
COc1cc(CC(=O)Nc2cc([C@H]3CC[C@@H](OC(=O)NCC(F)F)C3)[nH]n2)ccn1 [Example 251, (1R,3S)-3-(3-{[(2-methoxypyridin-4-yl)acetyl]amino}-1H-pyrazol-5-yl)cyclopentyl (2,2-difluoroethyl)carbamate] gave a pKi of 8.74.
Cc1cc(CC(=O)Nc2cc([C@H]3CC[C@@H](OC(=O)N4CCOC[C@H]4C)C3)[nH]n2)on1 [Example 643, (1R,3S)-3-(3-{[(3-methyl-1,2-oxazol-5-yl)acetyl]amino}-1H-pyrazol-5-yl)cyclopentyl (3R)-3-methylmorpholine-4-carboxylate] gave a pKi of 8.74.
Work on CCC(CO)CNC(=O)O[C@@H]1CC[C@H](c2cc(NC(=O)Cc3cnc(C)o3)n[nH]2)C1 (single isomer, unassigned) [Example 526] yielded a pKi of 8.40.
Work on CCC1(NC(=O)O[C@@H]2CC[C@H](c3cc(NC(=O)Cc4cnc(OC)cn4)n[nH]3)C2)CC1 [Example 450, (1R,3S)-3-(3-{[(5-methoxypyrazin-2-yl)acetyl]amino}-1H-pyrazol-5-yl)cyclopentyl (1-ethylcyclopropyl)carbamate] yielded a pKi of 9.42.
For COc1cnc(CC(=O)Nc2cc([C@H]3CC[C@@H](OC(=O)NC4(C)CCOC4)C3)[nH]n2)cn1 (single isomer, unassigned) [Example 485], the pKi was 8.85.
COc1cnc(CC(=O)Nc2cc([C@H]3CC[C@@H](OC(=O)N4[C@@H](C)C[C@@H]4C)C3)[nH]n2)cn1 [Example 610, (1R,3S)-3-(3-{[(5-methoxypyrazin-2-yl)acetyl]amino}-1H-pyrazol-5-yl)cyclopentyl (2S,4S)-2,4-dimethylazetidine-1-carboxylate] was tested, and the pKi was 8.98.
Work on Cc1cc(Cl)cnc1CC(=O)Nc1cc([C@H]2CC[C@@H](OC(=O)NC3(C)CC3)C2)[nH]n1 [Example 439, (1R,3S)-3-(3-{[(5-chloro-3-methylpyridin-2-yl)acetyl]amino}-1H-pyrazol-5-yl)cyclopentyl (1-methylcyclopropyl)carbamate] yielded a pKi of 8.63.
In the case of CC[C@H](C)NC(=O)O[C@@H]1CC[C@H](c2cc(NC(=O)Cc3ccccc3S(C)(=N)=O)n[nH]2)C1 (single isomer, unassigned) [Example 368], the pKi was 9.39.
COc1cc(CC(=O)Nc2cc([C@H]3CC[C@@H](OC(=O)NC(C)CC(F)F)C3)[nH]n2)ccn1 (single isomer, unassigned) [Example 99] showed a pKi of 10.05.
Cc1cnc(CC(=O)Nc2cc([C@H]3CC[C@@H](OC(=O)NC4(C)CC4)C3)[nH]n2)cc1Cl [Example 131] was tested, and the pKi was 9.70.
CC[C@H](C)CNC(=O)O[C@@H]1CC[C@H](c2cc(NC(=O)Cc3cnc(C)o3)n[nH]2)C1 [Example 416, (1R,3S)-3-(3-{[(2-methyl-1,3-oxazol-5-yl)acetyl]amino}-1H-pyrazol-5-yl)cyclopentyl [(2S)-2-methylbutyl]carbamate] gave a pKi of 8.64.
Molecule COc1ccc(CC(=O)Nc2cc([C@H]3CC[C@@H](OC(=O)N4C[C@H](OC)[C@H]4C)C3)[nH]n2)cn1 [Example 620, (1R,3S)-3-(3-{[(6-methoxypyridin-3-yl)acetyl]amino}-1H-pyrazol-5-yl)cyclopentyl (2R,3S)-3-methoxy-2-methylazetidine-1-carboxylate] has a pKi of 8.41.
With CC1(NC(=O)O[C@@H]2CC[C@H](c3cc(NC(=O)CC4COc5ccccc54)n[nH]3)C2)CCOC1 (single isomer, unassigned) [Example 492] the pKi was 8.62.
For CC(C)NC(=O)O[C@@H]1CC[C@H](c2cc(NC(=O)C3COc4ccccc43)n[nH]2)C1 (single isomer, unassigned) [Example 57], the pKi was 8.45.
